Measurements: patent US20070254309A1, “Methods for Assessing Embryo Viability” (Northern Sydney and Central Coast Area Health Service, priority 2006, published 2007)

Test system: p53
Assay: Western blot quantitation of p53 released into embryo culture media
Type: cell-based, mouse
Settings: embryos cultured in modHTF in the absence of Paf, compared with 0.1 μM Paf supplement; FIG. 3
Protocol: Embryos were collected and washed 3 times in cold PBS and transferred in a maximum volume of 1.5 μl PBS. Embryo culture media aliquots had embryos and all cells removed and then subjected to freeze drying. The lyophilized proteins were redissolved in 1.5 μl of water. Embryo or reconstituted culture media was mixed with 1.5 μl of 2X extraction buffer (2X PBS, 2% Triton X-100, 24 mM deoxycholic acid, 0.2% sodium dodecyl sulfate, 20 mM NaF, 20 mM Na4P2O7, 2 mM PMSF, 3.08 μM Aprotinin, 42 μM Leupeptin and 2.91 μM Pepstatin A-all from Sigma). The embryos were lysed by three cycles of freezing in liquid nitrogen and thawing (with vortexing). […]
Proteins were blotted into PVDF membranes (Hybond-P, Amersham Pharmacia) in a semi-dry blotting apparatus overnight using transfer buffer (12 mM Tris PH 7.0, 96 mM Glycine and 20% methanol). […] Membranes were probed with 1:500 diluted anti P53 antibody overnight at 4° C. in 2.5% skim milk, and detected with 1:500 diluted horse radish peroxidase (Jackson ImmunoResearch Laboratories, West Grove, Pa., USA) conjugated mouse antibody. […]
p53 was detected by Western blot as described above and densitometry was performed using Scion Image software (Scion Corporation, Frederick, Md., USA).

1-o-octadecyl/hexadecyl-2-acetyl-sn-glycero-3-phosphocholine [Paf]
extra-embryonic concentration of p53: higher
